Results taken from patent US11299501B2 (BRISTOL-MYERS SQUIBB COMPANY, priority 2017, dated 2022).

Tests used:
Assay type in all cases: cell-based
human TLR8 = target: T1, human TLR8 (Homo sapiens, UniProt Q9NR97); experiment: TLR8 inhibition reporter assay (HEK-Blue SEAP); details: cells overexpressing human TLR8, SEAP reporter, stimulated with R848 15.9 μM, 22 hour incubation
T1 construct: host or cells: HEK-Blue cells
T1 sequence (Q9NR97 27-1041): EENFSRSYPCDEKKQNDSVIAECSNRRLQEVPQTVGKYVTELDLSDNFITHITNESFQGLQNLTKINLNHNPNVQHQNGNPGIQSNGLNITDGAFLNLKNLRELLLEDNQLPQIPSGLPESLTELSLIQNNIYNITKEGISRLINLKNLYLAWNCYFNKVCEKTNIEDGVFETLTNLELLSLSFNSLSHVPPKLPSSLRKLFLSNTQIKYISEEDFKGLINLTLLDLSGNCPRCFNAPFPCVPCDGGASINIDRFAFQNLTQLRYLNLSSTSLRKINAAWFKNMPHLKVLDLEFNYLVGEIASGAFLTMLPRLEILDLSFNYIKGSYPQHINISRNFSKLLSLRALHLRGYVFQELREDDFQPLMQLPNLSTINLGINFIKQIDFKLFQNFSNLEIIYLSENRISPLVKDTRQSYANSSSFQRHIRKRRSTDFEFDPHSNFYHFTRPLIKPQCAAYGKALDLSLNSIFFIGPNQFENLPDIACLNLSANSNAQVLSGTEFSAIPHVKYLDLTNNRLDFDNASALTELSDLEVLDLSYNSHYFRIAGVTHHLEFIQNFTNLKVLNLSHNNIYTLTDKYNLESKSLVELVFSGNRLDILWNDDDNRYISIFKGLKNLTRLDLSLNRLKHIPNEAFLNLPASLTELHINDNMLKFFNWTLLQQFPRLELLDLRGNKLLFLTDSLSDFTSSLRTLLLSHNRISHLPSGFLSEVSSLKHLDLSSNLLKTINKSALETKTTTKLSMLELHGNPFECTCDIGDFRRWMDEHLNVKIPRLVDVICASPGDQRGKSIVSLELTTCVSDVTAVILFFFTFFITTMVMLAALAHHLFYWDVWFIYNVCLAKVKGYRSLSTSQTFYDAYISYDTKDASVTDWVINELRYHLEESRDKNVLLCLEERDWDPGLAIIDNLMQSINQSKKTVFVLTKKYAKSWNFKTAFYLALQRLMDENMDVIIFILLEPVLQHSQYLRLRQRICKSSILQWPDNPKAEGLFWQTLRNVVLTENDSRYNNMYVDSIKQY
Procedure: (§1) TLR7/8/9 Inhibition Reporter Assays
(§2) […] (Invivogen) overexpressing human TLR7, TLR8 or TLR9 receptors were used for screening inhibitors of these receptors using an inducible SEAP (secreted embryonic alkaline phosphatase) reporter gene under the control of the IFN-β minimal promoter fused to five NF-κB and AP-1-binding sites. Briefly, cells are seeded into Greiner 384 well plates (15000 cells per well for TLR7, 20,000 for TLR8 and 25,000 for TLR9) and then treated with test compounds in DMSO to yield a final dose response concentration range of 0.05 nM-50 μM. After a 30 minute compound pre-treatment at room temperature, the cells are then stimulated with a TLR7 ligand (gardiquimod at a final concentration of 7.5 μM). TLR8 ligand (R848 at a final concentration of 15.9 μM) or TLR9 ligand (ODN2006 at a final concentration of 5 nM) to activate NF-κB and AP-1 which induce the production of SEAP. After a 22 hour incubation at 37° C., 5% CO2, SEAP levels are determined with the addition of HEK-Blue™ Detection reagent (Invivogen), a cell culture medium that allows for detection of SEAP, according to manufacturer's specifications. The percent inhibition is determined as the % reduction in the HEK-Blue signal present in wells treated with agonist plus DMSO alone compared to wells treated with a known inhibitor.

human TLR7 = target: T2, human TLR7 (Homo sapiens, UniProt Q9NYK1); experiment: TLR7 inhibition reporter assay (HEK-Blue SEAP); details: cells overexpressing human TLR7, SEAP reporter, stimulated with gardiquimod 7.5 μM, 22 hour incubation
T2 construct: host or cells: HEK-Blue cells
T2 sequence (Q9NYK1 27-1049): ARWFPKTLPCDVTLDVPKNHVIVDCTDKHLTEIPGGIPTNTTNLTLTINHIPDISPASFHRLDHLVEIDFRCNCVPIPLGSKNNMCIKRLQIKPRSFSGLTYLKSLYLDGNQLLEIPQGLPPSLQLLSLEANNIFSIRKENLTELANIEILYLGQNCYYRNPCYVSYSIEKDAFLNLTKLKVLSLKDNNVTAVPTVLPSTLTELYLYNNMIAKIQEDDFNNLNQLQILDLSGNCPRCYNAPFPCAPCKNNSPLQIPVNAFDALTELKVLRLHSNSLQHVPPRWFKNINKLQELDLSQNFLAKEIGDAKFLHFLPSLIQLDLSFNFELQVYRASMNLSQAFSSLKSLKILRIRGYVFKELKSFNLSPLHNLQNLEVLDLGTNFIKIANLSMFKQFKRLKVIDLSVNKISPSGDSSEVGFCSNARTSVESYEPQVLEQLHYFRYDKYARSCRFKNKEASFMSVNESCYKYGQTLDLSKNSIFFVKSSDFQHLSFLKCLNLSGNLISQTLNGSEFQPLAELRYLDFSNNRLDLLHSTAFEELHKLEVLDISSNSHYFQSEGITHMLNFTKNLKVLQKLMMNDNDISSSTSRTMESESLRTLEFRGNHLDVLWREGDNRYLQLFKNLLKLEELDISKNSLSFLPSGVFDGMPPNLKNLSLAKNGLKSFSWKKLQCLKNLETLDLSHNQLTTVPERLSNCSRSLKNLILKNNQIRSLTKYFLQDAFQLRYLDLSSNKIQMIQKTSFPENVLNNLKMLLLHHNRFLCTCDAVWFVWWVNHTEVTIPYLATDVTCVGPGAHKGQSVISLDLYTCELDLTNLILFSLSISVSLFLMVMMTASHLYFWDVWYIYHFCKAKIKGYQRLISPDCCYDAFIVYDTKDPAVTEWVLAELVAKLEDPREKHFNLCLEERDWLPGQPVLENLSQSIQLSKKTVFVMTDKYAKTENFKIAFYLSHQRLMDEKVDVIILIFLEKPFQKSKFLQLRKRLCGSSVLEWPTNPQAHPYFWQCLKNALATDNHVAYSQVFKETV
Procedure: as §1, §2

human TLR9 = target: T3, human TLR9 (Homo sapiens, UniProt Q9NR96); experiment: TLR9 inhibition reporter assay (HEK-Blue SEAP); details: cells overexpressing human TLR9, SEAP reporter, stimulated with ODN2006 5 nM, 22 hour incubation
T3 construct: host or cells: HEK-Blue cells
T3 sequence (Q9NR96 26-1032): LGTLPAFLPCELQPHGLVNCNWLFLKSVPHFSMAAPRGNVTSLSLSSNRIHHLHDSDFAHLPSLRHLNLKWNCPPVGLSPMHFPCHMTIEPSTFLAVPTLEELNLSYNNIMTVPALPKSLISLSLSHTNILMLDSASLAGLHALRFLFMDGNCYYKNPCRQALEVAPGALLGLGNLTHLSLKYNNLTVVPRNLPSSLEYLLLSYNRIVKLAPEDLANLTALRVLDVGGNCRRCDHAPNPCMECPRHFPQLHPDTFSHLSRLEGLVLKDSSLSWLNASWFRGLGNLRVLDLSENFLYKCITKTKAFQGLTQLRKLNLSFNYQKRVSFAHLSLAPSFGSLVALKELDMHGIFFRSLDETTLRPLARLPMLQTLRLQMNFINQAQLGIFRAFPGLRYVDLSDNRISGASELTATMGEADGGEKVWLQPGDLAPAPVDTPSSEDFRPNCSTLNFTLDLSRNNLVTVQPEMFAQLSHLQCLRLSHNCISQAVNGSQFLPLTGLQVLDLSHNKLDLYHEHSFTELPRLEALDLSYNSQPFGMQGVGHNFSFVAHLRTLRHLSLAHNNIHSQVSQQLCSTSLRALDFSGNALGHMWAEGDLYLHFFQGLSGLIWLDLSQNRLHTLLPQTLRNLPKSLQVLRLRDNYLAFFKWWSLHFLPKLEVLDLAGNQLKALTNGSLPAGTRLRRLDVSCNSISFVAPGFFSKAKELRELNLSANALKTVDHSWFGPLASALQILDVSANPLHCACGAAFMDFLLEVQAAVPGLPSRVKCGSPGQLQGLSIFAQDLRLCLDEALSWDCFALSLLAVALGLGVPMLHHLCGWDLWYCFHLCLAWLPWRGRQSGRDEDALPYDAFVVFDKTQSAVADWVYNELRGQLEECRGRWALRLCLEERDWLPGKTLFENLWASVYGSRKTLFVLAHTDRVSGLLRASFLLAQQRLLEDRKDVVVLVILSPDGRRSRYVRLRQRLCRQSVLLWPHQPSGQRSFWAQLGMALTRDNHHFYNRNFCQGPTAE
Procedure: as §1, §2

## CNC(=O)CN1CCC(c2ncc3[nH]c(-c4cn5ncnc5c(C)c4C)c(C(C)C)c3n2)CC1 [Example 9, 2-(4-(6-(7,8-dimethyl-[1,2,4]triazolo[1,5-a]pyridin-6-yl)-7-isopropyl-5H-pyrrolo[3,2-d]pyrimidin-2-yl)piperidin-1-yl)-N-methylacetamide]
Human TLR8
  IC50: < 100 nM
Human TLR7
  IC50: < 100 nM
Human TLR9
  IC50: 1000 to 50000 nM

## Cc1cc(-c2[nH]c3cnc(C4CCN(C(=O)CN(C)C)CC4)nc3c2C(C)C)cn(C)c1=O [Example 33, 5-(2-(1-(dimethylglycyl)piperidin-4-yl)-7-isopropyl-5H-pyrrolo[3,2-d]pyrimidin-6-yl)-1,3-dimethylpyridin-2(1H)-one]
Human TLR8
  IC50: 100 to 1000 nM
Human TLR7
  IC50: < 100 nM
Human TLR9
  IC50: 1000 to 50000 nM

## CNC(=O)CN1CCC(c2ncc3[nH]c(-c4cc(OC)c5ncnn5c4)c(C(C)C)c3n2)CC1 [Example 35, 2-(4-(7-isopropyl-6-(8-methoxy-[1,2,4]triazolo[1,5-a]pyridin-6-yl)-5H-pyrrolo[3,2-d]pyritnidin-2-yl)piperidin-1-yl)-N-methylacetamide]
Human TLR8
  IC50: < 100 nM
Human TLR7
  IC50: < 100 nM
Human TLR9
  IC50: > 50000 nM

## Cc1cc(-c2[nH]c3cnc(C4CCN(C5COC5)CC4)nc3c2C(C)C)cn2ncnc12 [Example 24, 6-(7-isopropyl-2-(1-(oxetan-3-yl)piperidin-4-yl)-5H-pyrrolo[3,2-d]pyrimidin-6-yl)-8-methyl-[1,2,4]triazolo[1,5-a]pyridine]
Human TLR8
  IC50: < 100 nM
Human TLR7
  IC50: < 100 nM
Human TLR9
  IC50: 1000 to 50000 nM

## CCc1c(-c2ccc(OC)c(OC)c2)[nH]c2cnc(C(=O)N3CC4CNCC4C3)nc12 (stereo not drawn) [Example 55, (6-(3,4-dimethoxyphenyl)-7-ethyl-5H-pyrrolo[3,2-d]pyrimidin-2-yl)(hexahydropyrrolo[3,4-c]pyrrol-2(1H)-yl)methanone]
Human TLR8
  IC50: 1000 to 50000 nM
Human TLR7
  IC50: 1000 to 50000 nM
Human TLR9
  IC50: 1000 to 50000 nM

## COc1cc(-c2[nH]c3cnc(C4CCN(CC(C)(C)O)CC4)nc3c2C(C)C)cn2ncnc12 [Example 15, 1-(4-(7-isopropyl-6-(8-methoxy-[1,2,4]triazolo[1,5-a]pyridin-6-yl)-5H-pyrrolo[3,2-d]pyrimidin-2-yl)piperidin-1-yl)-2-methylpropan-2-ol]
Human TLR8
  IC50: < 100 nM
Human TLR7
  IC50: < 100 nM
Human TLR9
  IC50: 1000 to 50000 nM

## CCc1c(-c2ccc(OC)c(OC)c2)[nH]c2ncc(C3CCNCC3)nc12 [Example 3, 6-(3,4-dimethoxyphenyl)-7-ethyl-2-(piperidin-4-yl)-5H-pyrrolo[2,3-b]pyrazine]
Human TLR8
  IC50: 100 to 1000 nM
Human TLR7
  IC50: 100 to 1000 nM
Human TLR9
  IC50: 100 to 1000 nM

## COc1cc(-c2[nH]c3cnc(C4CCN(CC(=O)N(C)C)CC4)nc3c2C(C)C)cn2ncnc12 [Example 31, 2-(4-(7-isopropyl-6-(8-methoxy-[1,2,4]triazolo[1,5-a]pyridin-6-yl)-5H-pyrrolo[3,2-d]pyrimidin-2-yl)piperidin-1-yl)-N,N-dimethylacetamide]
Human TLR8
  IC50: < 100 nM
Human TLR7
  IC50: < 100 nM
Human TLR9
  IC50: 1000 to 50000 nM

## CCc1c(-c2ccc(OC)c(OC)c2)[nH]c2cnc(C3CCN(Cc4c[nH]cn4)CC3)nc12 [Example 51, 2-(1-((1H-imidazol-4-yl)methyl)piperidin-4-yl)-6-(3,4-dimethoxyphenyl)-7-ethyl-5H-pyrrolo[3,2-d]pyrimidine]
Human TLR8
  IC50: 100 to 1000 nM
Human TLR7
  IC50: 100 to 1000 nM
Human TLR9
  IC50: 1000 to 50000 nM

## Cc1c(-c2[nH]c3cnc(C4CCN(CC(=O)N(C)C)CC4)nc3c2C(C)C)cn2ncnc2c1C [Example 10, 2-(4-(6-(7,8-dimethyl-[1,2,4]triazolo[1,5-a]pyrimidin-6-yl)-7-isopropyl-5H-pyrrolo[3,2-d]pyrimidin-2-yl)piperidin-1-yl)-N,N-dimethylacetantide]
Human TLR8
  IC50: < 100 nM
Human TLR7
  IC50: < 100 nM
Human TLR9
  IC50: 1000 to 50000 nM

## CCc1c(-c2ccnc3[nH]ncc23)[nH]c2cnc(C3CCN(C4CCN(C(C)C)CC4)CC3)nc12 [Example 25, 4-(7-ethyl-2-(1′-isopropyl-[1,4′-bipiperidin]-4-yl)-5H-pyrrolo[3,2-d]pyrimidin-6-yl)-1H-pyrazolo[3,4-b]pyridine]
Human TLR8
  IC50: 100 to 1000 nM
Human TLR7
  IC50: 100 to 1000 nM
Human TLR9
  IC50: 100 to 1000 nM
